According to paper PMC3610872, “Full and Partial Agonists of Thromboxane Prostanoid Receptor Unveil Fine Tuning of Receptor Superactive Conformation and G Protein Activation” (PLoS ONE, 2013):
Positions count from the first letter of the chain named. Several values for one entry are separate records, joined by “and”; a condition that tells them apart may be missing. Equal entries are not always repeated.

Tests used:
[1] = target: T1, E129V mutant human TP receptor (Homo sapiens, UniProt P21731, E129V); assay: Total inositol phosphate (IP) accumulation, E129V mutant; type: cell-based; conditions: HEK293 cells
T1 construct: expressed in transfected cells; host or cells: HEK293
T1 sequence (P21731 1-343 E129V): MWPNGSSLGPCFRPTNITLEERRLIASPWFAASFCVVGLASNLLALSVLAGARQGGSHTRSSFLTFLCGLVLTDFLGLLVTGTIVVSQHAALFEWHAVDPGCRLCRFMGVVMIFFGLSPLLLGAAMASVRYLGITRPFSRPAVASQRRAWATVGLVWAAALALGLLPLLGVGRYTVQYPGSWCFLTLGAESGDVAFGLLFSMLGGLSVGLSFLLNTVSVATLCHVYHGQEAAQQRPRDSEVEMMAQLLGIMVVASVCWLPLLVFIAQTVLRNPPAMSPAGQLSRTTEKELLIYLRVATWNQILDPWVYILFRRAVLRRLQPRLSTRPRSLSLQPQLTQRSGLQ
Experimental: (§1) Receptor expression and functional activity were monitored 48 hours after transfection. […] Heterologous competition studies involved concentrations of the indicated unlabeled ligands extending from 0.1 nM to 30 µM. After 30 min incubation at 25 °C, the reaction was stopped by aspiration of the medium, cells were washed with ice-cold PBS containing 0.2% (w/v) BSA and lysed in 0.5 N NaOH. Radioactivity was measured by liquid scintillation counting. Binding data were analyzed as described in Data and Statistical Analysis. Quantification of the total labeled inositol phosphates (IP) accumulation was performed using a conventional gravity flow column chromatography, as described previously, [19]. Briefly, the day before the assay, cells were labeled with 0,5 µCi of [myo-2-^3H]inositol (17 Ci/mmol) for 18–20 hours in serum-free, inositol-free DMEM containing 20 mM HEPES buffer, pH 7.4, and 0.5% (w/v) Albumax I. The day of the assay, media was replaced with serum-free, inositol-free DMEM containing 25 mM LiCl and cells stimulated for 30 min with the indicated agonists. After removal of the medium, cells were lysed with 10 mM formic acid and lysates were applied onto an anion exchange AG 1X-8 column, formate form, 200–400 mesh. The total IP fraction was then eluted with 2 M ammonium formate/formic acid buffer at pH 5 and radioactivity determined by liquid scintillation counting. Rescue experiments were performed essentially as above, except for a 18 hours incubation step with 1 µΜof […] followed by its removal by washing three times with ice-cold PBS containing 1 mM MgCl2 and 0.1 mM CaCl2 before starting the experiment.
(§2) All average results are presented as mean±S.E. When indicated, ANOVA followed by post-hoc test for multiple comparisons was performed. Data from radioligand binding were evaluated by a nonlinear, least-squares curve-fitting procedure using GraphPad Prism version 4, implemented with the n-ligand m-binding site model, as described in the LIGAND computer program. Concentration-response curves were evaluated using Prism 4, which use the four parameters logistic model as described in the ALLFIT program. Parameter errors are all expressed in percentage coefficient of variation (%CV) and calculated by simultaneous analysis of at least two different independent experiments performed in duplicate or triplicate. Parameter comparison has been performed on the base of the F test for extra sum of square principle. All curves shown are computer generated.

WT human TP receptor = target: T2, WT human TP receptor (Homo sapiens, UniProt P21731); assay: [3H]SQ29,548 radioligand binding (mixed-type and heterologous competition), WT receptor; conditions: HEK293 cells, competition vs 1 nM [3H]SQ29,548, 25°C 30 min, value ±%CV
T2 construct: expressed in transfected cells; host or cells: HEK293
T2 sequence (P21731 1-343): T1 sequence (P21731 1-343 E129V) with V129E
Experimental: as §1, §2
(§3) Thus, transfection conditions were adjusted to secure equivalent levels of receptor expression for WT and mutants as previously described, [17], [19]. […] All the experiments were conducted within this range of receptor expression, if not specified differently.

[2] = target: T3, double mutant E129V/E240V of human TP receptor (Homo sapiens, UniProt P21731, E129V/E240V); assay: Total inositol phosphate (IP) accumulation, E129V/E240V double mutant, rescue with SQ29,548; type: cell-based; conditions: HEK293 cells, E129V/E240V double mutant after rescue with 1 µM SQ29,548 for 18 h; ±33%CV
T3 construct: expressed in transfected cells; host or cells: HEK293
T3 sequence (P21731 1-343 E129V/E240V): T1 sequence (P21731 1-343 E129V) with E240V
Experimental: Receptor expression and functional activity were monitored 48 hours after transfection. […] Heterologous competition studies involved concentrations of the indicated unlabeled ligands extending from 0.1 nM to 30 µM. After 30 min incubation at 25 °C, the reaction was stopped by aspiration of the medium, cells were washed with ice-cold PBS containing 0.2% (w/v) BSA and lysed in 0.5 N NaOH. Radioactivity was measured by liquid scintillation counting. Binding data were analyzed as described in Data and Statistical Analysis. Quantification of the total labeled inositol phosphates (IP) accumulation was performed using a conventional gravity flow column chromatography, as described previously, [19]. […] The total IP fraction was then eluted with 2 M ammonium formate/formic acid buffer at pH 5 and radioactivity determined by liquid scintillation counting. […]
All average results are presented as mean±S.E. When indicated, ANOVA followed by post-hoc test for multiple comparisons was performed. Data from radioligand binding were evaluated by a nonlinear, least-squares curve-fitting procedure using GraphPad Prism version 4, implemented with the n-ligand m-binding site model, as described in the LIGAND computer program. Concentration-response curves were evaluated using Prism 4, which use the four parameters logistic model as described in the ALLFIT program. […]

E240V mutant TP receptor = test system: E240V mutant TP receptor; set-up: method as in PMID 20383734; conditions: E240V vs WT; cited from earlier work
[3] = target: T1, E129V mutant human TP receptor; assay: [3H]SQ29,548 radioligand binding (mixed-type and heterologous competition), E129V mutant; conditions: HEK293 cells
Experimental: as §1, §2, §3

[4] = target: T1, E129V mutant human TP receptor; set-up: method as in PMID 20383734; conditions: E129V vs WT; cited from earlier work
[5] = E129V, 30 min stimulation, value ±%CV

SMILES: CCCCC[C@H](O)/C=C/[C@@H]1[C@@H](C/C=C\CCCC(=O)O)[C@H]2CO[C@@H]1C2 (relative stereo) [U46619, [1R-[1α,4α,5β(Z),6α(1E,3S*)]]-7-[6-(3-hydroxy-1-octenyl)-2-oxabicyclo[2.2.1]hept-5-yl]-5-heptenoic acid]
- EC50 [1, 5]: 4.47 nM
- Emax, total IP [1, 5]: 18115±5 dpm/wel
- Activity ratio (EC50 WT over EC50 E129V), total IP ([1]; WT vs E129V): 22.1
- Ki (WT human TP receptor): 170 ± 13 nM
- EC50 [2]: 1.66 nM
- Fold lower EC50 than WT, total IP formation (E240V mutant TP receptor): 10 fold
- Ki ([3]; E129V, competition vs 1 nM [3H]SQ29,548, 25°C 30 min, value ±%CV): 16.3 ± 18 nM
- Affinity ratio (Ki WT over Ki E129V) ([3]; WT vs E129V): 10 and 10.4
- Fold lower EC50 than WT, total IP formation [4]: 10 fold
